Here are results for four compounds from patent US6470226B1 (priority 1997, dated 2002).

This experiment relates to voltage dependent calcium channels. It counts as cell-based, chick.
Consider `O=C1NC(=O)C(c2ccccc2)(c2ccccc2)N1` [phenytoin], for which the “effect on voltage dependent calcium channels (maximum current induced by depolarizing voltage steps)” value was “no effect on calcium ion channels”.

On to w-conotoxin MVIIA, for which the “effect on voltage dependent calcium channels (maximum current induced by depolarizing voltage steps)” value is “high affinity for N-type calcium channels” and the “reversibility of effect (washout)” value is given as “irreversible”.

`N=C(N)NC(=O)c1nc(Cl)c(N)nc1N` [amiloride]: the “effect on voltage dependent calcium channels (maximum current induced by depolarizing voltage steps)” value is “no effect on calcium ion channels”.

With `COC(=O)C1=C(C)NC(C)=C([N+](=O)[O-])C1c1ccccc1C(F)(F)F` (stereo not drawn) [Bay-k 8644], the “effect on voltage dependent calcium channels (maximum current induced by depolarizing voltage steps)” value is “stimulates L-type calcium channels” and the “reversibility of effect (washout)” value is reported as “reversibly”.
